The target of assay [1] is Mcl-1 protein (Homo sapiens, UniProt Q07820). The experiment in a line: Inhibition of Mcl-1 by the fluorescence polarisation technique. Format: binding. The following applies: fluorescence polarisation test; Fluorescein labelled ligand 1 nM, Mcl-1 protein 5 nM, ~2 hours at r.t.; read-out: IC50 (M) Mcl-1 FP. In outline: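 Competitive FP displacement of fluorescein-labelled peptide ligand (1 nM final) from Mcl-1 (5 nM final) in HEPES 10 mM, 150 mM NaCl, 0.05% Tween 20, pH 7.4, 5% DMSO final. Read after ~2 h at r.t.; IC50 from 11-point 4-parameter logistic fit of % mP reduction.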
Sequence of Mcl-1 protein (Q07820 whole entry): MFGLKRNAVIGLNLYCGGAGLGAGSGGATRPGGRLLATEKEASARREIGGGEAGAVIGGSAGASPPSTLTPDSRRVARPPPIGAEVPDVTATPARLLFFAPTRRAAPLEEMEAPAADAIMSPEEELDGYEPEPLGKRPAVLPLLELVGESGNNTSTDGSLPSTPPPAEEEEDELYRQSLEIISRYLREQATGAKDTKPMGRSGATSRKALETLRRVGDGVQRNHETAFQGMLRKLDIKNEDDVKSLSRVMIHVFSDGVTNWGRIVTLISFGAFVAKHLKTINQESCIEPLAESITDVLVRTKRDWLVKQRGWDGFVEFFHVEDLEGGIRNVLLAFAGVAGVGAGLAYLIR
A general note: Polarisation of emitted light reports the rotation of a fluorescent probe.

For assay [2], the system named is H929 cells. Put plainly: In vitro cytotoxicity (MTT) on H929 multiple myeloma tumour line. It is filed as cell-based. The following applies: Microculture Tetrazolium Assay. How it is done:
The cytotoxicity studies were carried out on the H929 multiple myeloma tumour line.
The cells are distributed onto microplates and exposed to the test compounds for 48 hours.
The cell viability is then quantified by a colorimetric assay, the Microculture Tetrazolium Assay (Cancer Res., 1987, 47, 939-942).

The mark [3] stands for this setting: Homo sapiens, NCI-H929, exposed 48 hours.

What is called IC50 is the concentration that gives 50% inhibition.

Where a name gives a salt, the structure may show the parent alone.

`Cc1c(-c2c(-c3ccc(F)cc3)sc3ncnc(OC(Cc4ccccc4OCc4ccnc(-c5cccc(OCCO)c5)n4)C(=O)O)c23)ccc(OCCN2CCN(C)CC2)c1Cl` [Example 30, (2R)-2-{[(5Sa)-5-{3-chloro-2-methyl-4-[2-(4-methylpiperazin-1-yl)ethoxy]phenyl}-6-(4-fluorophenyl)thieno[2,3-d]pyrimidin-4-yl]oxy}-3-[2-({2-[3-(2-hydroxyethoxy)phenyl]pyrimidin-4-yl-}methoxy)phenyl]propanoic acid]: the IC50 in assay [1] was determined as 4.5e-09 M; in assay [2] (setting [3]), 3.6 nM.
On the same counts, the results for `Cc1c(-c2c(-c3ccc(F)cc3)sc3ncnc(OC(Cc4ccccc4OCc4ccnc(-c5cccc(COC(=O)NCCN(C)C)c5)n4)C(=O)O)c23)ccc(OCCN2CCN(C)CC2)c1Cl` [Example 43, (2R)-2-{[(5Sa)-5-{3-chloro-2-methyl-4-[2-(4-methylpiperazin-1-yl)ethoxy]phenyl}-6-(4-fluorophenyl)thieno[2,3-d]pyrimidin-4-yl]oxy}-3-{2-[(2-{3-[({[2-(dimethylamino)ethyl]carbamoyl}oxy)methyl]phenyl}pyrimidin-4-yl)methoxy]phenyl}propanoic acid] are 4.55e-09 M and 31.1 nM.
Take `Cc1c(-c2c(-c3ccc(F)cc3)sc3ncnc(OC(Cc4ccccc4OCc4ccnc(-c5ccc(OCC6OC(O)C(O)C(O)C6O)cc5)n4)C(=O)O)c23)ccc(OCCN2CCN(C)CC2)c1Cl` [Example 20, 6-O-{4-[4-({2-[(2R)-2-carboxy-2-{[(5Sa)-5-{3-chloro-2-methyl-4-[2-(4-methylpiperazin-1-yl)ethoxy]phenyl}-6-(4-fluorophenyl)thieno[2,3-d]pyrimidin-4-yl]oxy}ethyl]phenoxy}methyl)pyrimidin-2-yl]phenyl}-D-mannopyranose]: the IC50 in assay [1] was found to be 4.35e-09 M; in assay [2] (setting [3]), 56.8 nM.
For the compound `Cc1c(-c2c(-c3ccc(F)cc3)sc3ncnc(OC(Cc4ccccc4OCc4ccnc(-c5ccc(O)cc5)n4)C(=O)O)c23)ccc(OCCN2CCN(C)CC2)c1Cl` [Example 2, (2R)-2-{[(5Sa)-5-{3-chloro-2-methyl-4-[2-(4-methylpiperazin-1-yl)ethoxy]phenyl}-6-(4-fluorophenyl)thieno[2,3-d]pyrimidin-4-yl]oxy}-3-(2-{[2-(4-hydroxyphenyl)pyrimidin-4-yl]methoxy}phenyl)propanoic acid], the values for the IC50 in assay [1] and in assay [2] (setting [3]) were 1.32e-08 M and 15.9 nM, respectively.
On the same counts, the results for `Cc1c(-c2c(-c3ccc(F)cc3)sc3ncnc(OC(Cc4ccccc4OCc4ccnc(-c5cccc(COC(=O)N6CCC(N7CCCCC7)CC6)c5)n4)C(=O)O)c23)ccc(OCCN2CCN(C)CC2)c1Cl` [Example 37, (2R)-3-(2-{[2-(3-{[(1,4′-bipiperidin-1′-ylcarbonyl)oxy]methyl}phenyl)pyrimidin-4-yl]methoxy}phenyl)-2-{[(5Sa)-5-{3-chloro-2-methyl-4-[2-(4-methylpiperazin-1-yl)ethoxy]phenyl}-6-(4-fluorophenyl)thieno[2,3-d]pyrimidin-4-yl]oxy}propanoic acid] are 6.3e-09 M and 20.5 nM.
With `Cc1c(-c2c(-c3ccc(F)cc3)sc3ncnc(OC(Cc4ccccc4OCc4ccnc(-c5ccc(OP(=O)(O)O)cc5)n4)C(=O)O)c23)ccc(OCCN2CCN(C)CC2)c1Cl` [Example 57, 4-[4-({2-[(2R)-2-carboxy-2-{[(5Sa)-5-{3-chloro-2-methyl-4-[2-(4-methylpiperazin-1 yl)ethoxy]phenyl}-6-(4-fluorophehnyl)thieno[2,3-d]pyrimidin-4-yl]oxy}ethyl]phenoxy}methyl)pyrimidin-2-yl]phenyl phosphate disodium salt], the IC50 in assay [1] was 4.6e-09 M; in assay [2] (exposed 48 hours), 22.7 nM.
On the same counts, the results for `COCc1ccccc1-c1nccc(COc2ccccc2C[C@@H](Oc2ncnc3sc(-c4ccc(F)cc4)c(-c4ccc(OCCN5CCN(C)CC5)c(Cl)c4C)c23)C(=O)O)n1` [Example 8, (2R)-2-{[(5Sa)-5-{3-chloro-2-methyl-4-[2-(4-methylpiperazin-1-yl)ethoxy]phenyl}-6-(4-flurophenyl)thieno[2,3-d]pyrimidin-4-yl]oxy}-3-[2-({2-[2-(methoxymethyl)phenyl]pyrimidin-4-yl}methoxy)phenyl]propanoic acid] are 7.35e-09 M and 2.07 nM.
With `COCCOCCOCCOc1ccccc1-c1nccc(COc2ccccc2CC(Oc2ncnc3sc(-c4ccc(F)cc4)c(-c4ccc(OCCN5CCN(C)CC5)c(Cl)c4C)c23)C(=O)O)n1` [Example 7, (2R)-2-{[(5Sa)-5-{3-chloro-2-methyl-4-[2-(4-methylpiperazin-1-yl)ethoxy]phenyl}-6-(4-flurophenyl)thieno[2,3-d]pyrimidin-4-yl]oxy}-3-(2-{[2-(2-{2-[2-(2-methoxyethoxy)ethoxy]ethoxy}phenyl)pyrimidin-4-yl]methoxy}phenyl)propanoic acid], the IC50 in assay [1] is 3.75e-09 M; in assay [2] (exposed 48 hours), 4.45 nM.
Regarding `Cc1c(-c2c(-c3ccc(F)cc3)sc3ncnc(OC(Cc4ccccc4OCc4ccnc(-c5ccc(COC6OC(CO)C(O)C(O)C6O)cc5)n4)C(=O)O)c23)ccc(OCCN2CCN(C)CC2)c1Cl` [Example 23, (2R)-2-{[(5Sa)-5-{3-chloro-2-methyl-4-[2-(4-methylpiperazin-1-yl)ethoxy]phenyl}-6-(4-flurophenyl)thieno[2,3-d]pyrimidin-4-yl]oxy}-3-{2-[(2-{4-[(α-D-mannopyranosyloxy)methyl]phenyl}pyrimidin-4-yl)methoxy]phenyl}propanoic acid], the IC50 was 2.7e-09 M in assay [1] and 39.7 nM in assay [2] (exposed 48 hours).
With `Cc1c(-c2c(-c3ccc(F)cc3)sc3ncnc(OC(Cc4ccccc4OCc4ccnc(-c5cccc(OCCOCCO)c5)n4)C(=O)O)c23)ccc(OCCN2CCN(C)CC2)c1Cl` [Example 39, (2R)-2-{[(5Sa)-5-{3-chloro-2-methyl-4-[2-(4-methylpiperazin-1-yl)ethoxy]phenyl}-6-(4-fluorophenyl)thieno[2,3-d]pyrimidin-4-yl]oxy}-3-{2-[(2-{3-[2-(2-hydroxyethoxy)ethoxy]phenyl}pyrimidin-4-yl)methoxy]phenyl}propanoic acid], the IC50 in assay [1] is 3.05e-09 M; in assay [2] (setting [3]), 3.25 nM.
On the same counts, the results for `Cc1c(-c2c(-c3ccc(F)cc3)sc3ncnc(OC(Cc4ccccc4OCc4ccnc(-c5cccc(CO)c5)n4)C(=O)O)c23)ccc(OCCN2CCN(C)CC2)c1Cl` [Example 3, (2R)-2-{[(5Sa)-5-{3-chloro-2-methyl-4-[2-(4-methylpiperazin-1-yl)ethoxy]phenyl}-6-(4-fluorophenyl)thieno[2,3-d]pyrimidin-4-yl]oxy}-3-[2-({2-[3-(hydroxymethyl)phenyl]pyrimidin-4-yl}methoxy)phenyl]propanoic acid] are 4.05e-09 M and 4.08 nM.
On the same counts, the results for `Cc1c(-c2c(-c3ccc(F)cc3)sc3ncnc(OC(Cc4ccccc4OCc4ccnc(-c5ccc(COC6(C)OC7OC(CO)C(O)C(O)C7O6)cc5)n4)C(=O)O)c23)ccc(OCCN2CCN(C)CC2)c1Cl` [Example 22, 1,2-O-[(1R)-1-({4-[4-({2-[(2R)-2-carboxy-2-{[(5Sa)-5-{3-chloro-2-methyl-4-[2-(4-methylpiperazin-1-yl)ethoxy]phenyl}-6-(4-fluorophenyl)thieno[2,3-d]pyrimidin-4-yl]oxy}ethyl]phenoxy}methyl)pyrimidin-2-yl]benzyl}oxy)ethylidene]-β-D-mannopyranose] are 5.5e-09 M and 5.97 nM.
Take `Cc1c(-c2c(-c3ccc(F)cc3)sc3ncnc(OC(Cc4ccccc4OCc4ccnc(-c5ccccc5OCC5COC(C)(C)O5)n4)C(=O)O)c23)ccc(OCCN2CCN(C)CC2)c1Cl` [Example 5, (2R)-2-{[(5Sa)-5-{3-chloro-2-methyl-4-[2-(4-methylpiperazin-1-yl)ethoxyl]phenyl}-6-(4-fluorophenyl)thieno[2,3-d]pyrimidin-4-yl]oxy}-3-{2-[(2-{2-[(2,2-dimethyl-1,3-dioxolan-4-yl)methoxyl]phenyl}pyrimidin-4-yl)methoxy]phenyl}propanoic acid]: the IC50 in assay [1] stood at 3.7e-09 M; in assay [2] (setting [3]) it was 1.65 nM.
On the same counts, the results for `Cc1c(-c2c(-c3ccc(F)cc3)sc3ncnc(OC(Cc4ccccc4OCc4ccnc(-c5ccc(OCC(O)CO)cc5)n4)C(=O)O)c23)ccc(OCCN2CCN(C)CC2)c1Cl` [Example 15, (2R)-2-{[(5Sa)-5-{3-chloro-2-methyl-4-[2-(4-methylpiperazin-1-yl)ethoxy]phenyl}-6-(4-fluorophehenyl)thieno[2,3-d]pyrimidin-4-yl]oxy}-3-[2-({2-[4-(2,3-dihydroxypropoxy)phenyl]pyrimidin-4-yl}methoxy)phenyl]propanoic acid] are 2.75e-09 M and 3.59 nM.
In the case of `COC1OC(COc2ccc(-c3nccc(COc4ccccc4CC(Oc4ncnc5sc(-c6ccc(F)cc6)c(-c6ccc(OCCN7CCN(C)CC7)c(Cl)c6C)c45)C(=O)O)n3)cc2)C(O)C(O)C1O` [Example 18, methyl 6-O-{4-[4-({2-[(2R)-2-carboxy-2-{[(5Sa)-5-{3-chloro-2-methyl-4-[2-(4-methylpiperazin-1-yl)ethoxy]phenyl}-6-(4-flurophenyl)thieno[2,3-d]pyrimidin-4-yl]oxy}ethyl]phenoxy}methyl)pyrimidin-2-yl]phenyl}-α-D-mannopyranoside], the IC50 came to 4.1e-09 M in assay [1] and 13.9 nM in assay [2] (exposed 48 hours).
Regarding `Cc1c(-c2c(-c3ccc(F)cc3)sc3ncnc(OC(Cc4ccccc4OCc4ccnc(-c5ccccc5COCCO)n4)C(=O)O)c23)ccc(OCCN2CCN(C)CC2)c1Cl` [Example 10, (2R)-2-{[(5Sa)-5-{3-chloro-2-methyl-4-[2-(4-methylpiperazin-1-yl)ethoxy]phenyl}-6-(4-fluorophenyl)thieno[2,3-d]pyrimidin-4-yl]oxy}-3-{2-[(2-{2-[(2-hydroxyethoxy)methyl]phenyl}pyrimidin-4-yl)methoxy]phenyl}propanoic acid], the IC50 in assay [1] was 1.09e-08 M; in assay [2] (setting [3]), 2.79 nM.

Values taken from patent publication US10322131B2, “Hydroxyacid derivatives, a process for their preparation and pharmaceutical compositions containing them” (LES LABORATOIRES SERVIER, priority 2015, dated 2019).
